In general, Papp refers to the rate of passage across a membrane or cell layer, normalised by area and donor concentration. Higher therefore signals ready permeation.

Non-standard residues stand in square brackets, D forms with d. Residues, ends and D or L forms follow the SMILES beside them.

One series is described as follows: PAMPA. Type of series: in vitro ADME. A general note: The PAMPA barrier holds no transporters, so it reflects passive diffusion.
A short description of a further series: Horizon-LBA. Type of series: in vitro ADME. To be noted: not told.
For series [1] the following is noted: R. Strutt and coworkers; cited from earlier work.

With `COc1ccc(C[C@@H]2NC(=O)[C@@H](CC(C)C)NC(=O)[C@H](C(C)C)NC(=O)[C@H](CC(C)C)NC(=O)[C@@H](CC(C)C)NC(=O)[C@H]3CCCN3C2=O)cc1` [Peptide 1] (cyclo(LV[dL]Y(Me)[dP][dL])), the Papp in “PAMPA” was 16.5 ± 0.9 ×10⁻⁶ cm/s; in the series “Horizon-LBA”, 300 ± 100 ×10⁻⁶ cm/s. Consider `Cn1c(=O)c2c(ncn2C)n(C)c1=O` [Caffeine], for which the “permeability coefficient (DIB of DOPC, UV detector)” value in series [1] is given as 2.81 ± 0.0920 × 10^−4 cm s^−1.

The values above are taken from article PMC9811578 (Chemical Science, 2022).
